Measurements from patent US6433178B1, “3-alkyl-3-phenyl-piperidines” (Warner-Lambert Company, priority 1996, dated 2002).

Experiments:
human NK1 receptors = biological target: T1, human NK1 receptors (Homo sapiens, UniProt P25103); assay: Receptor binding in transfected CHO cells (125I-labeled ligand displacement), NK1; conditions: CHO cells expressing human NK1; 0.2 nM 125I-labeled ligand; 1 hour at room temperature
T1 construct: expressed in transfected cells; host or cells: CHO cells
Experimental: (§1) 1. Receptor Binding in Transfected CHO Cells
(§2) CHO cells expressing either human NK1 or NK3 receptors were cultured in Ham's F-12 Nutrient Mixture supplemented with 10% fetal call serum and 1% penicillin/streptomycin. Cells were seeded to 96-well Wallac (Gaithersburg, Md.) rigid crosstalk corrected cell culture plate 1 day before experiment. On the day of each experiment, cells were washed twice with phosphate buffered saline (PBS) and appropriate agonists or antagonists were added and incubated in 0.2 nM ^125I-labeled ligand in PBS containing 0.4 mg/mL BSA, 0.08 mg/mL bacitracin, 0.004 mg/mL chymostatin, 0.004 mg/mL leupeptin, 1 μM thiorphan, 25 μM phosphoramidon, and 2 mM MnCl2. The cells were incubated for 1 hour at room temperature and the reactions terminated by two washes with ice cold PBS. Fifty microliters of 2% SDS followed by 175 μL of Ready Gel (Beckman) were added to each well. Plates were vortexed, and the radioactivity was quantified in a Wallac 1450 microbeta scintillation counter. Nonspecific binding was determined in the presence of 1 μM unlabeled corresponding ligand. Receptor binding data were analyzed with nonlinear curve fitting using KaleidaGraph software package (PCS Inc., Reading, Pa.). IC50 values were determined using a modified Hill equation, [formula]
(§3) where cold ligand represents unlabeled ligand, L represents the concentration of unlabeled ligand, n the Hill coefficient, and IC50 the concentration of unlabeled ligand that causes 50% inhibition of the total specific binding of 0.2 nM radiolabeled ligand.

NK3 receptors [1] = biological target: T2, NK3 receptors (Homo sapiens, UniProt P29371); assay: Receptor binding in transfected CHO cells (125I-labeled ligand displacement), NK3; conditions: CHO cells expressing human NK3; 0.2 nM 125I-labeled ligand; 1 hour at room temperature
T2 construct: expressed in transfected cells; host or cells: CHO cells
T2 sequence (P29371 1-465): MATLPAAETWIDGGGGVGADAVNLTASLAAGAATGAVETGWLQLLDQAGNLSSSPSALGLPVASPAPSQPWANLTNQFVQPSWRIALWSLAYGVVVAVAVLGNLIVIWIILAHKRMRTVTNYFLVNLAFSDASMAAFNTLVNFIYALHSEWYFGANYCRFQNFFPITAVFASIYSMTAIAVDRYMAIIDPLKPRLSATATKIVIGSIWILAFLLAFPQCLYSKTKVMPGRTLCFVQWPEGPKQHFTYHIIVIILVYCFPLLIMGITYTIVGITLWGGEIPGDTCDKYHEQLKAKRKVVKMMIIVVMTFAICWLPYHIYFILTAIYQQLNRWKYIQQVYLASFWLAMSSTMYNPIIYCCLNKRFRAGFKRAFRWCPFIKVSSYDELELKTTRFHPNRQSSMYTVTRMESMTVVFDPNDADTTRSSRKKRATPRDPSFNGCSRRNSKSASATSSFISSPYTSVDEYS
Experimental: as §1, §2, §3

[2] = Pharmacokinetics in male Wistar rats after an oral dose; format: in vivo; conditions: oral dose of ~20 mg/kg, solution in PEG 400/Ethanol/Water (40/15/45); for AUC / Cmax / Tmax / half-life: rat, plasma; for AUC: read-out: AUC(0-tldc) (area under the plasma concentration-time curve from zero time to the last detectable concentration); for Cmax: read-out: Cmax (the highest plasma concentration); for Tmax: read-out: tmax (time to reach the highest plasma concentration); for half-life: read-out: t½ (terminal elimination half-life) (converted)
NK3 receptors [3] = biological target: T2, NK3 receptors; assay: Inhibition of agonist-induced phosphatidylinositol turnover (inositol phosphates accumulation) in transfected CHO cells; format: cell-based; conditions: CHO cells expressing NK3 receptors; 1 μM of tested compounds; pKB=log(dose ratio−1)−log[B]
Experimental: 2. Inhibition of Phosphatidylinositol Turnover in Transfected CHO Cells
The inhibitory effects of these compounds on agonist-induced phosphatidylinositol turnover was estimated by measuring their effects on inositol phosphates (IP) accumulation in CHO cells expressing NK3 receptors. Briefly, cells (10,000/well) were seeded in 96-well cell culture plates 24 hours before changing medium to EMEM/F-12 (w/Earle's salt, w/glutamine; GIBCOL) containing 10 μCi/mL [^3H]inositol. After overnight incubation with [^3H]inositol, medium was removed and cells were washed twice with assay buffer (MEM with 10 mM LiCl, 20 mM HEPES, and 1 mg/mL BSA). Cells were then incubated with various concentrations of agonists with or without 1 μM of tested compounds for 1 hour. Reactions were stopped by two washes with ice-cold PBS followed by the addition of 0.1 mL ice-cold 5% TCA to each well. The TCA extract was applied to a […] column containing AG 1-X8 resin (Bio-Rad) and washed three times with 5 mM myo-inositol. Inositol phosphates (IP) was eluted with 1 M ammonium formate/0.1 M formic acid. Radioactivity was determined by liquid scintillation counting. Data were analyzed with nonlinear curve fitting using KaleidaGraph software package (PCS Inc, Reading, Pa.). The pKB values in Table 2 were calculated according to the formula: pKB=log(dose ratio−1)−log[B].

T1 sequence (P25103 whole entry): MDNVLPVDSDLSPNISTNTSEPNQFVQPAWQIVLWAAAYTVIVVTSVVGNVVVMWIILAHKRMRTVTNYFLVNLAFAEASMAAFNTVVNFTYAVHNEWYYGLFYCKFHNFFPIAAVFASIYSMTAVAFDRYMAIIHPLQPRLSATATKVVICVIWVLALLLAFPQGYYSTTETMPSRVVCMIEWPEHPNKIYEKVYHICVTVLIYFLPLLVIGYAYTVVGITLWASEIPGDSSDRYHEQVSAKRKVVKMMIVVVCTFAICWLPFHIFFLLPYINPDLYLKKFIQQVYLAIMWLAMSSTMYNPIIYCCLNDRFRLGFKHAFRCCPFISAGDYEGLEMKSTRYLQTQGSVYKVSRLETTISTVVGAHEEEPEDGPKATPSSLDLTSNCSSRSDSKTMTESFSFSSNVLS

IC50 (human NK1 receptors)	IC50 (NK3 receptors [1])	AUC ([2]; mean (SD))	Cmax ([2]; mean (SD))	Tmax ([2]; mean)	tmax (time to reach the highest plasma concentration) ([2]; mean)	AUC(0-tldc) (area under the plasma concentration-time curve from zero time to the last detectable concentration) ([2]; mean (SD))	Cmax (the highest plasma concentration) ([2]; mean (SD))	pKB (NK3 receptors [3])	SMILES	Kb (NK3 receptors [3])	half-life ([2]; mean)
0.694 ± 0.089 µM	0.0178 ± 0.0015 µM	572 ng·h/mL	107 ng/mL	1.8 h					Cl.O=C(c1ccccc1)N1CCCC(CCCN2CCC(c3ccccc3)CC2)(c2ccc(Cl)c(Cl)c2)C1 (centres unmarked) [Compound 20-3, {3-(3,4-Dichlorophenyl)-3-[3-(4-phenyl-piperidin-1-yl)-propyl]-piperidin-1-yl}-phenyl-methanone monohydrochloride]	0.0126 µM	
> 1 µM	0.0059 ± 0.0004 µM								Cl.O=C(c1ccccc1)N1CCCC(CCCN2CCC(O)(CS(=O)(=O)c3ccccc3)CC2)(c2ccc(Cl)c(Cl)c2)C1 (centres unmarked) [Compound 20-1, {3-[3-(4-Benzensulfonylmethyl-4-hydroxy-piperidin-1-yl]-3-(3,4-dichlorophenyl)-piperidin-1-yl}-phenyl-methanone monohydrochloride]		
					1.3 h	366 (140) ng · hr/mL	74.0 (12.9) ng/mL	8.2 ± 0.4	Cl.O=C(c1ccccc1)N1CCCC(CCCN2CCC(O)(CS(=O)(=O)c3ccccc3)CC2)(c2ccc(Cl)c(Cl)c2)C1 (centres unmarked) [Compound 20-1]		
		703 ng·h/mL	133 ng/mL	1.8 h					CC(=O)N(C)C1(c2ccccc2)CCN(CCC[C@]2(c3ccc(Cl)c(Cl)c3)CCCN(C(=O)c3ccccc3)C2)CC1 [SR 142801, reference compound]		5.3 h

SMILES	IC50 (human NK1 receptors)	IC50 (NK3 receptors [1])	AUC ([2]; mean (SD))	Cmax ([2]; mean (SD))	Tmax ([2]; mean)	tmax (time to reach the highest plasma concentration) ([2]; mean)	AUC(0-tldc) (area under the plasma concentration-time curve from zero time to the last detectable concentration) ([2]; mean (SD))	Cmax (the highest plasma concentration) ([2]; mean (SD))	pKB (NK3 receptors [3])	Kb (NK3 receptors [3])	half-life ([2]; mean)
Cl.O=C(c1ccccc1)N1CCCC(CCCN2CCC(O)(c3ccccc3)CC2)(c2ccc(Cl)c(Cl)c2)C1 (centres unmarked) [Compound 20-2, {3-(3,4-Dichlorophenyl)-3-[3-(4-hydroxy-4-phenyl-piperidin-1-yl)-propyl]-piperidin-1-yl}-phenyl-methanone monohydrochloride]	> 1 µM	0.0062 ± 0.0006 µM	716 ng·h/mL	125 ng/mL	1.3 h					0.00501 µM	7.4 h
